Assay results reported in PMC8523698, “Preclinical characterization of an intravenous coronavirus 3CL protease inhibitor for the potential treatment of COVID19” (Nature Communications, 2021).
Where “and” joins values, the source holds several entries; their conditions need not be identical. Equal values may be shown once. Read-outs that look alike come from different tables or passages of the source.

Legend:
[1] = Human pharmacokinetic, Ceff and dose predictions; details: Fig 6C reference line, drawn from 0 to 72 h; head gives 500 nM
[2] = read-out: competitive Ki; vendor-verified compound file; ref Simcyp library; cited from earlier work
[3] = test system: SARS-CoV-2 Washington strain 1 (USA_WA1/2020); format: cell-based; parameters: Percent Effect / Percent Effect (EC50 data): scale not given: direction of the effect not stated beside the values
MRC-5 cells = assay: Cytotoxicity in MRC-5 cells
HCoV-229E = assay: Viral CPE assay in MRC-5 cells (CellTiter Glo); format: cell-based
MDR1/P-gp = MDR1/P-gp (Homo sapiens, UniProt P08183); assay: Transporter inhibition using membrane vesicles; details: uptake of N-methyl quinidine by MDR1; control inhibitor concentration 4.000 uM; single replicates
MDR1/P-gp, sequence (P08183 whole entry, the tested form may be a part): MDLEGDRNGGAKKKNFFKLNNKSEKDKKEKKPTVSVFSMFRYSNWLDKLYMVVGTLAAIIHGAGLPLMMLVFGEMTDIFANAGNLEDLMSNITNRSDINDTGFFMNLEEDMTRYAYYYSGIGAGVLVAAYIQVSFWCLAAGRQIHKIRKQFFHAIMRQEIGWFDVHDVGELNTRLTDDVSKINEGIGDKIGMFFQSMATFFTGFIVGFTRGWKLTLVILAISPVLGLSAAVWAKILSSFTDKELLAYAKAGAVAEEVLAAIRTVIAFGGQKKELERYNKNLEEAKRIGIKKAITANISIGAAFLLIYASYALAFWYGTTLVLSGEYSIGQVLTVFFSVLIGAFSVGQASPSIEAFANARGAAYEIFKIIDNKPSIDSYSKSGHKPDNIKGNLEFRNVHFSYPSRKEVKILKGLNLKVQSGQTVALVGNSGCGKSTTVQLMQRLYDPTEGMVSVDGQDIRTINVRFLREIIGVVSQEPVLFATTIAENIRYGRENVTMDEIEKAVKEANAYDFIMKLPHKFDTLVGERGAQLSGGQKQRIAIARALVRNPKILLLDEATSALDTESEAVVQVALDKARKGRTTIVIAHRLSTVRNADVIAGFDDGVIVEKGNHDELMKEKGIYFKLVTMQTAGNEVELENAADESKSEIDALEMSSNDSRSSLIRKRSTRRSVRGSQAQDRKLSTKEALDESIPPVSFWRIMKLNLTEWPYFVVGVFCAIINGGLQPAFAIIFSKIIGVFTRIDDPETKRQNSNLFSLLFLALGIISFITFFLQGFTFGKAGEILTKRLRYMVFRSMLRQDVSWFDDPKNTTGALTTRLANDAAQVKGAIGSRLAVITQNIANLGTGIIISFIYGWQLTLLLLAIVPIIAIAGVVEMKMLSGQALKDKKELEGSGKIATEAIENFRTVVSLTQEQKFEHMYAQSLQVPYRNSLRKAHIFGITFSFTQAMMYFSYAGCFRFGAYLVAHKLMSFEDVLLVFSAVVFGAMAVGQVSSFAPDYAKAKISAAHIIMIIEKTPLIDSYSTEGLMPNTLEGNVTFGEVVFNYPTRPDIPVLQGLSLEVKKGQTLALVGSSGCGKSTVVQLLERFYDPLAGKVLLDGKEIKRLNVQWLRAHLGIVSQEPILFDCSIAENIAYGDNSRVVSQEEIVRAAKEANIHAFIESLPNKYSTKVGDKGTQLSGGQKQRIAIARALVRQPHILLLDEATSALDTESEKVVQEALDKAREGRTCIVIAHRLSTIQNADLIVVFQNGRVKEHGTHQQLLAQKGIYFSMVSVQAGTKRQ

[4] = Rat 24-h continuous intravenous infusion GLP toxicity study; format: in vivo, Sprague-Dawley rats; details: Fig 6C reference line 0 to 72 h

SMILES: COc1cccc2[nH]c(C(=O)N[C@@H](CC(C)C)C(=O)N[C@@H](C[C@@H]3CCNC3=O)C(=O)CO)cc12 [Active]
- Ceff SARS-COV2 (+P-gp inhib)= 500 nM [1]: 0.5

SMILES: CC(O)C(C)n1ncn(-c2ccc(N3CCN(c4ccc(OCC5COC(Cn6cncn6)(c6ccc(Cl)cc6Cl)O5)cc4)CC3)cc2)c1=O (stereo not drawn) [OH-itraconazole]
- Ki [2]: 0.0023 µM

SMILES: COc1cccc2[nH]c(C(=O)N[C@@H](CC(C)C)C(=O)N[C@@H](C[C@@H]3CCNC3=O)C(=O)COP(=O)(O)O)cc12 [PF-07304814-00]
- Percent Effect ([3]; 0.00976562 uM): 0.053% and 0.085%
- Percent Effect ([3]; 0.0195312 uM): 2.09% and 3.15%
- Percent Effect ([3]; 0.0390625 uM): 0.085% and 9.35%
- Percent Effect ([3]; 0.078125 uM): -0.27% and 0.54%
- Percent Effect (EC50 data) ([3]; 0.195312 uM): -0.82%
- Percent Effect ([3]; 0.3125 uM): 2.28% and 1.63%
- Percent Effect ([3]; 0.390625 uM): 7.76% and 0.81% and 1.70% and 4.09% and 0.21% and 2.38% and 2.51% and 3.73%
- Percent Effect (EC50 data) ([3]; 0.390625 uM): -0.72%
- Percent Effect ([3]; 0.625 uM): -1.46% and -0.53%
- Percent Effect (EC50 data) ([3]; 0.78125 uM): 8.72% and 9.53%
- Percent Effect (EC50 data) ([3]; 3.125 uM): 96.73% and 101.34%
- Percent Effect (EC50 data) ([3]; 5 uM): 98.13% and 94.20%
- Percent Effect (EC50 data) ([3]; 6.25 uM): 105.65% and 94.43%
- Percent Effect (EC50 data) ([3]; 25 uM): 105.56%
- Percent Effect (EC50 data) ([3]; 31.6456 uM): 95.69% and 95.38% and 91.49% and 94.38%
- Percent Effect (EC50 data) ([3]; 50 uM): 95.66%
- Percent Effect (EC50 data) ([3]; 100 uM): 87.92% and 94.81% and 91.90% and 95.50%
- % Well Effect (CC50 data) (MRC-5 cells; minus efflux inhibitor, 0.031642 uM): -10.74%
- % Well Effect (CC50 data) (MRC-5 cells; minus efflux inhibitor, 0.100053 uM): -6.45% and -4.39%
- % Well Effect (CC50 data) (MRC-5 cells; minus efflux inhibitor, 3.16311 uM): -8.68%
- % Well Effect (CC50 data) (MRC-5 cells; minus efflux inhibitor, 10.0018 uM): -6.54%
- % Well Effect (CC50 data) (MRC-5 cells; plus 0.5 uM efflux inhibitor, 0.031642 uM): -2.54% and -3.43%
- % Well Effect (CC50 data) (MRC-5 cells; plus 0.5 uM efflux inhibitor, 0.100053 uM): -2.51% and -2.24% and 4.92%
- % Well Effect (CC50 data) (MRC-5 cells; plus 0.5 uM efflux inhibitor, 1.00035 uM): -1.28% and -4.08%
- % Well Effect (CC50 data) (MRC-5 cells; plus 0.5 uM efflux inhibitor, 3.16311 uM): 5.87% and 5.13%
- % Well Effect (CC50 data) (MRC-5 cells; plus 0.5 uM efflux inhibitor, 31.6256 uM): -2.89% and -4.52%
- % Well Effect (CC50 data) (MRC-5 cells; plus 0.5 uM efflux inhibitor, 100 uM): 2.77% and -3.47% and 5.60% and -0.62%
- % Well Effect (EC50 data) (HCoV-229E; minus efflux inhibitor, 0.000949 uM): 1.31% and -4.82% and -7.06% and -4.29% and -0.06%
- % Well Effect (EC50 data) (HCoV-229E; minus efflux inhibitor, 0.300053 uM): 80.07% and 80.97% and 97.35% and 80.44% and 65.29% and 92.74%
- % Well Effect (EC50 data) (HCoV-229E; minus efflux inhibitor, 0.948767 uM): 81.04% and 93.59% and 91.22% and 85.19% and 91.91% and 88.72%
- % Well Effect (EC50 data) (HCoV-229E; minus efflux inhibitor, 3 uM): 79.54% and 90.29% and 94.42% and 83.20% and 94.29% and 89.17%
- % Well Effect (EC50 data) (HCoV-229E; plus 0.5 uM efflux inhibitor, 0.094893 uM): 70.28% and 62.16% and 55.71% and 62.75% and 53.71% and 73.85%
- % Well Effect (EC50 data) (HCoV-229E; plus 0.5 uM efflux inhibitor, 0.300053 uM): 83.32% and 95.05% and 90.93% and 79.15% and 93.97% and 90.05%
- % Well Effect (EC50 data) (HCoV-229E; plus 0.5 uM efflux inhibitor, 0.948767 uM): 82.39% and 96.75% and 87.38% and 79.38% and 95.45% and 97.43%
- % Well Effect (EC50 data) (HCoV-229E; plus 0.5 uM efflux inhibitor, 3 uM): 80.02% and 92.89% and 93.90% and 81.60% and 91.07% and 95.86%

SMILES: COc1cccc2[nH]c(C(=O)N[C@@H](CC(C)C)C(=O)N[C@@H](C[C@@H]3CCNC3=O)C(=O)COP(=O)(O)O)cc12 [PF-073048141]
- CC50 (VeroE6-EGFP cells): > 50 µM
- CC50 (VeroE6-EGFP cells; n=2): > 50 µM

SMILES: C/C=C/C[C@@H](C)C(=O)[C@H]1C(=O)N[C@@H](C(C)C)C(=O)N(C)CC(=O)N(C)[C@@H](CC(C)C)C(=O)N[C@@H](C(C)C)C(=O)N(C)[C@@H](CC(C)C)C(=O)N[C@@H](C)C(=O)N[C@H](C)C(=O)N(C)[C@@H](CC(C)C)C(=O)N(C)[C@@H](CC(C)C)C(=O)N(C)[C@@H](C(C)C)C(=O)N1C [PSC833]
- % PGP Uptake Activity (MDR1/P-gp): 0.2057% (2×) and -0.01029% (2×) and -0.1954% (2×)

SMILES: COc1cccc2[nH]c(C(=O)N[C@@H](CC(C)C)C(=O)N[C@@H](C[C@@H]3CCNC3=O)C(=O)COP(=O)(O)O)cc12 [Pf-4814]
- Reg tox Day 1 Rat with Pf-4814 Actove (Cave, uM) ([4]; Day 1, dosed with Pf-4814, Cave of active): 10.7 µM

SMILES: COc1cccc2[nH]c(C(=O)N[C@@H](CC(C)C)C(=O)N[C@@H](C[C@@H]3CCNC3=O)C(=O)CO)cc12 [Pf-5231]
- Reg tox Day 1 Rat with Pf-5231 Actove (Cave,uM) ([4]; Day 1, dosed with Pf-5231, Cave of active): 10.7 µM
